Ten molecules from patent publication US10647680B2, “Urea compound, preparation method therefor and medical use thereof” (Ancureall Pharmaceutical (Shanghai) Co., Ltd., priority 2016, dated 2020) can be followed below.

The test system of assay [1] is RAMOS (positive expression of Brutons tyrosine protein kinase). Put plainly: In vitro growth inhibition (GI50), RAMOS. The format is cell-based. The following applies: Homo sapiens, Cell lines of leukemia, read-out: GI 50 Ramos BTK.
Assay [2] has as its system NCI-H460 (KRAS G61H mutant type). The assay is described as follows: In vitro growth inhibition (GI50), NCI-H460. Format: cell-based. The conditions noted are these: Homo sapiens. From the text: Tumor cell line is an effective cell model for studying the inhibition of tumor cell growth or proliferation in vitro. In the present invention, a representative tumor cell line was selected to determine the cell growth inhibition activity of the present compound. All cell lines used were from ATCC, DSMZ, and the Cell Bank of the Chinese Academy of Sciences. Cell culture conditions and methods were in accordance with the requirements of each cell line. Cells were subcultured in vitro for no more than 3 passages each time, and as required, single-clone purification and identification of cell lines could be carried out.
The cell culture media used were RPMI1640 (Gibco), MEM (Gibco), McCOY'S5A (Gibco), and IMDM (Gibco). The complete medium was prepared by supplement with 5˜20% fetal calf serum (Gibco), 1% double-antibiotics (10000 units/mL penicillin and 10000 units/mL), 2 mM glutamine or 1 mM sodium pyruvate, respectively.
Human large cell lung cancer cell NCI-H460 (KRAS […] mutant type, ATCC), human non-small cell lung cancer cell line H1299 (NRAS Q61K mutant type, ATCC), human melanoma cell line A375 (BRAF V600E mutant type, Shanghai Cell Bank of Chinese Academy of Sciences), human colon cancer cell line HCT116 (KRAS G13D mutant type, Shanghai Cell Bank, Chinese Academy of Sciences) were cultured in a complete medium of 1×RPMI1640 (10% FBS), respectively. Human non-small cell lung cancer cells A549 (KRAS G12S mutant type, Shanghai Cell Bank, Chinese Academy of Sciences) were cultured in a complete medium of 1× Ham's supplemented with 10% FBS, 1% double antibody, and 2 mM glutamine.
Adherent cells were digested with 0.25% pancreatin-EDTA (Gibco). The suspension cells were collected by centrifugation. The supernatant was discarded and the cell pellet was resuspended and counted. Different cell concentrations (5˜10×10^4 cells/mL) were prepared according to the growth cycle of each cell line and then seeded on a 96-well plate (Corning), 100 μL/well. The cells were incubated overnight at 37° C., 5% CO2. The compounds were added to the cells on the second day with 2 wells in parallel. The final concentration of organic solvent shall not exceed 1%. The cells were continually incubated for 3 to 5 days, and then subjected to MTT assay.
The compound of the present invention and the control compound were dissolved in DMSO (Sigma) respectively, with the purity of more than 98%. The compound was stored in a concentration of 10 mM at −20° C. and diluted to 2- or 10-fold series prior to use.
Dojindo CCK8 reagent kit was used as MTT assay. THERMO […] FC meter was used as microplate reader.
For adherent cells, culture medium was removed and immediately replaced with the fresh prepared medium which contains 10% CCK8 reagent (100 μL/well). For the suspension cells, CCK8 was directly added to 10% of the final concentration. The cells were continually incubated for 1˜4 h. When a dark yellow color could be observed in the solvent control wells, the absorbance value at OD450 nm was measured and the cell growth rate was calculated according to the following formula: Cell Growth Rate (%)=100*(T−T0)/(C−T0) T=optical density of drug treatment cell well—optical density of blank control well; T0=optical density of cell well before drug treatment—optical density of blank control well; C=optical density of cell well of solvent control group—optical density of blank control well. The concentration value of 50% inhibition of cell growth (GI50) was calculated according to the drug concentration and cell growth rate curve. The experiment was independently repeated 1˜3 times, and subject to biological statistical analysis. 4. Experimental Results
Tumor cell growth inhibition test was performed by selecting representative compounds (compounds 4, 11, 12, 16, 27, 68, 71, 77, 79, 89 and 116 of the present invention). The initial concentration of the compound was 5,000 nM, then it was serially diluted by 2-fold or 10-fold to 0.01 nM. […]

As for `CC(C)(C)c1cc(NC(=O)Nc2ccc(-n3cnc4cc(OCCN5CCOCC5)ccc43)cc2)[nH]n1` [Compound 89, 1-(5-tert-butyl-2H-pyrazol-3-yl)-3-{4-[5-(2-morpholin-4-yl-ethoxyl)-benzimidazol-1-yl]-phenyl}-urea], the GI50 in assay [1] is greater than 1000 nM; in assay [2], greater than 2500 nM.

`CC(C)(C)c1cc(NC(=O)Nc2ccc(-n3cnc4cc(O)ccc43)cc2)no1` [Compound 4, 1-(5-tert-butyl-isoxazol-3-yl)-3-[4-(5-hydroxy-benzimidazol-1-yl)-phenyl]-urea]: the GI50 is 100 to 1000 nM in assay [1] and greater than 2500 nM in assay [2].

As to `CC(C)(C)c1cc(NC(=O)Nc2ccc(-n3cnc4cc(OCCO)ccc43)cc2)no1` [Compound 11, 1-(5-tert-butyl-isoxazol-3-yl)-3-{4-[5-(2-hydroxy-ethoxyl)-benzimidazol-1-yl]-phenyl]-urea], the GI50 was greater than 1000 nM in assay [1] and greater than 2500 nM in assay [2].

For `COCCOc1ccc2c(c1)ncn2-c1ccc(NC(=O)Nc2cc(C(C)(C)C)n[nH]2)cc1` [Compound 77, 1-(5-tert-butyl-2H-pyrazol-3-yl)-3-{4-[5-(2-methoxyl-ethoxyl)-benzimidazol-1-yl]-phenyl}-urea], the GI50 was greater than 1000 nM in assay [1] and greater than 2500 nM in assay [2].

Take `CC(C)(C)c1cc(NC(=O)Nc2ccc(-n3cnc4ccccc43)cc2)[nH]n1` [Compound 68, 1-(4-benzimidazol-1-yl-phenyl)-3-(5-tert-butyl-2H-pyrazol-3-yl)-urea]: the figures for the GI50 in assay [1] and in assay [2] were greater than 1000 nM and greater than 2500 nM, respectively.

Regarding `CC(C)(C)c1cc(N)n(C(=O)Nc2ccc(-n3cnc4ccccc43)cc2)n1` [Compound 116, 5-amino-3-tert-butyl-pyrazol-1-carboxylic acid (4-benzimidazol-1-yl-phenyl)-amide], the values for the GI50 in assay [1] and in assay [2] were greater than 1000 nM and greater than 2500 nM, respectively.

With `CC(C)(C)c1cc(NC(=O)Nc2ccc(-n3cnc4cc(OCCN5CCOCC5)ccc43)cc2)no1` [Compound 16, 1-(5-tert-butyl-isoxazol-3-yl)-3-{4-[5-(2-morpholin-4-yl-ethoxyl)-benzimidazol-1-yl]-phenyl}-urea], the values for the GI50 in assay [1] and in assay [2] were greater than 1000 nM and greater than 2500 nM, respectively.

As to `COc1ccc2c(c1)ncn2-c1ccc(NC(=O)Nc2cc(C(C)(C)C)n[nH]2)cc1` [Compound 71, 1-(5-tert-butyl-2H-pyrazol-3-yl)-3-[4-(5-methoxyl-benzimidazol-1-yl)-phenyl]-urea], the GI50 was greater than 1000 nM in assay [1] and greater than 2500 nM in assay [2].

`CC(C)(C)c1cc(NC(=O)Nc2ccc(-n3cnc4cc(OCCO)ccc43)cc2)[nH]n1` [Compound 79, 1-(5-tert-butyl-2H-pyrazol-3-yl)-3-{4-[5-(2-hydroxy-ethoxyl)-benzimidazol-1-yl]-phenyl]urea]: the GI50 in assay [1] is greater than 1000 nM; in assay [2], greater than 2500 nM.

Regarding `CC(C)(C)c1cc(NC(=O)Nc2ccc(-n3cnc4ccc(OCCN5CCOCC5)cc43)cc2)no1` [Compound 27, 1-(5-tert-butyl-isoxazol-3-yl)-3-{4-[6-(2morpholin-4-yl-ethoxyl)-benzimidazol-1-yl]-phenyl}-urea], the GI50 in assay [1] is greater than 1000 nM; in assay [2], greater than 2500 nM.
